Measurements: patent US20040038904A1, “Method of treating multiple sclerosis” (priority 2002, published 2004)

Test system: progressive multiple sclerosis
Assay: Monitoring of progress of treatment (clinical condition) in patient with progressive multiple sclerosis
Assay type: in vivo, human
Conditions: epirubicin 75-100 mg iv with dexrazoxane, 12-week cycle, first and second treatment cycles
From the text: Anthracyclines of the present invention can be administered in cycles over 7-week to 15-week intervals. Generally, treatment with anthracyclines is started with a 12-week cycle and the patient is monitored for progress of the treatment during the course of treatment. If the condition of the patient deteriorates between week 8 and 12 of the cycle, the treatment cycle should be shortened to, for example, 9 weeks or shorter.
A patient is diagnosed with progressive multiple sclerosis. Anthracycline therapy with epirubicin 75 mg by intravenous injection is initiated on a 12-week cycle. Prior to the administration of the anthracycline, the patient is pretreated with dexrazoxane at 750 mg by intravenous injection. The patient is monitored for progress of treatment and hematologic and non-hematologic toxicity throughout the course of treatment.

## COc1cccc2c1C(=O)c1c(O)c3c(c(O)c1C2=O)C[C@@](O)(C(=O)CO)C[C@@H]3O[C@H]1C[C@H](N)[C@@H](O)[C@H](C)O1 [epirubicin]
  patient's clinical condition during treatment cycle: deteriorates between weeks 9 and 12
